Measured values as given in PubChem BioAssay (NCI).
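Where inhibition never reached the appropriate level, the endpoint shown equals the highest concentration tested. Otherwise, values were interpolated linearly from a five-concentration, 48-hour dose response in 96-well plates. TGI: concentration producing complete growth inhibition.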

Legend:
Experiment in all cases: NCI anticancer screen, dose series, 48 h
PC-3 prostate = tested on: PC-3 prostate
SF-268 CNS = tested on: SF-268 CNS
HS 578T breast = tested on: HS 578T breast
TK-10 renal = tested on: TK-10 renal
OVCAR-4 ovarian = tested on: OVCAR-4 ovarian
LOX IMVI melanoma = tested on: LOX IMVI melanoma
MCF7 breast = tested on: MCF7 breast
MALME-3M melanoma = tested on: MALME-3M melanoma
EKVX NSCLC = tested on: EKVX NSCLC
NCI-H23 lung = tested on: NCI-H23 lung
SF-295 CNS = tested on: SF-295 CNS
786-0 renal = tested on: 786-0 renal
OVCAR-8 ovarian = tested on: OVCAR-8 ovarian
OVCAR-3 ovarian = tested on: OVCAR-3 ovarian
HCC-2998 colon = tested on: HCC-2998 colon
HL-60(TB) leukemia = tested on: HL-60(TB) leukemia
M14 melanoma = tested on: M14 melanoma
SNB-19 CNS = tested on: SNB-19 CNS
OVCAR-5 ovarian = tested on: OVCAR-5 ovarian
UO-31 renal = tested on: UO-31 renal
CAKI-1 renal = tested on: CAKI-1 renal
SK-MEL-28 melanoma = tested on: SK-MEL-28 melanoma
SK-MEL-5 melanoma = tested on: SK-MEL-5 melanoma
SW-620 colon = tested on: SW-620 colon
HCT-15 colon = tested on: HCT-15 colon
ACHN renal = tested on: ACHN renal
BT-549 breast = tested on: BT-549 breast
MDA-N = tested on: MDA-N
MDA-MB-231 breast = tested on: MDA-MB-231 breast
MOLT-4 leukemia = tested on: MOLT-4 leukemia
HOP-62 NSCLC = tested on: HOP-62 NSCLC
UACC-257 melanoma = tested on: UACC-257 melanoma
HCT-116 colon = tested on: HCT-116 colon
T-47D breast = tested on: T-47D breast
SN12C renal = tested on: SN12C renal
SF-539 CNS = tested on: SF-539 CNS
HT29 colon = tested on: HT29 colon
A549 NSCLC = tested on: A549 NSCLC
IGROV1 ovarian = tested on: IGROV1 ovarian
KM12 colon = tested on: KM12 colon
UACC-62 melanoma = tested on: UACC-62 melanoma
CCRF-CEM leukemia = tested on: CCRF-CEM leukemia
SR leukemia = tested on: SR leukemia
COLO 205 colon = tested on: COLO 205 colon
A498 renal = tested on: A498 renal
RXF 393 renal = tested on: RXF 393 renal
RPMI-8226 leukemia = tested on: RPMI-8226 leukemia
DU-145 prostate = tested on: DU-145 prostate
MDA-MB-435 = tested on: MDA-MB-435
NCI-H226 lung = tested on: NCI-H226 lung
SNB-75 CNS = tested on: SNB-75 CNS
U251 CNS = tested on: U251 CNS
NCI-H460 lung = tested on: NCI-H460 lung
SK-MEL-2 melanoma = tested on: SK-MEL-2 melanoma
K-562 leukemia = tested on: K-562 leukemia
NCI-H522 lung = tested on: NCI-H522 lung

`Cc1ncc([N+](=O)[O-])n1CCNC(=O)CCCn1ccnc1[N+](=O)[O-]` gave a TGI (PC-3 prostate) greater than 100 µM, a TGI (SF-268 CNS) greater than 100 µM and a TGI (HS 578T breast) greater than 100 µM. The TGI (TK-10 renal) was greater than 100 µM, the TGI (OVCAR-4 ovarian) was greater than 100 µM and the TGI (LOX IMVI melanoma) was greater than 100 µM. The TGI (MCF7 breast) was greater than 100 µM, the TGI (MALME-3M melanoma) was greater than 100 µM and the TGI (EKVX NSCLC) was greater than 100 µM. For the same compound, the TGI (NCI-H23 lung) was greater than 100 µM, the TGI (SF-295 CNS) was greater than 100 µM and the TGI (786-0 renal) was greater than 100 µM. For the same compound, the TGI (OVCAR-8 ovarian) was greater than 100 µM, the TGI (OVCAR-3 ovarian) was greater than 100 µM and the TGI (HCC-2998 colon) was greater than 100 µM. For the same compound, the TGI (HL-60(TB) leukemia) was greater than 100 µM, the TGI (M14 melanoma) was greater than 100 µM and the TGI (SNB-19 CNS) was greater than 100 µM. For the same compound, the TGI (OVCAR-5 ovarian) was greater than 100 µM, the TGI (UO-31 renal) was greater than 100 µM and the TGI (CAKI-1 renal) was greater than 100 µM. It also gave a TGI (SK-MEL-28 melanoma) greater than 100 µM, a TGI (SK-MEL-5 melanoma) greater than 100 µM and a TGI (SW-620 colon) greater than 100 µM. The TGI (HCT-15 colon) was greater than 100 µM, the TGI (ACHN renal) was greater than 100 µM and the TGI (BT-549 breast) was greater than 100 µM. For the same compound, the TGI (MDA-N) was greater than 100 µM, the TGI (MDA-MB-231 breast) was greater than 100 µM and the TGI (MOLT-4 leukemia) was greater than 100 µM. For the same compound, the TGI (HOP-62 NSCLC) was greater than 100 µM, the TGI (UACC-257 melanoma) was greater than 100 µM and the TGI (HCT-116 colon) was greater than 100 µM. For the same compound, the TGI (T-47D breast) was greater than 100 µM, the TGI (SN12C renal) was greater than 100 µM and the TGI (SF-539 CNS) was greater than 100 µM. For the same compound, the TGI (HT29 colon) was greater than 100 µM, the TGI (A549 NSCLC) was greater than 100 µM and the TGI (IGROV1 ovarian) was greater than 100 µM. For the same compound, the TGI (KM12 colon) was greater than 100 µM, the TGI (UACC-62 melanoma) was greater than 100 µM and the TGI (CCRF-CEM leukemia) was greater than 100 µM. It also gave a TGI (SR leukemia) greater than 100 µM, a TGI (COLO 205 colon) greater than 100 µM and a TGI (A498 renal) greater than 100 µM. For the same compound, the TGI (RXF 393 renal) was greater than 100 µM, the TGI (RPMI-8226 leukemia) was greater than 100 µM and the TGI (DU-145 prostate) was greater than 100 µM. For the same compound, the TGI (MDA-MB-435) was greater than 100 µM, the TGI (NCI-H226 lung) was greater than 100 µM and the TGI (SNB-75 CNS) was greater than 100 µM. For the same compound, the TGI (U251 CNS) was greater than 100 µM, the TGI (NCI-H460 lung) was greater than 100 µM and the TGI (SK-MEL-2 melanoma) was greater than 100 µM. For the same compound, the TGI (K-562 leukemia) was greater than 100 µM.
In the case of `O=C(c1cc(Cl)ccc1Cl)N1CCN(c2cccc(Cl)c2)CC1`, the TGI (PC-3 prostate) is reported as 6.22 µM, the TGI (SF-268 CNS) is reported as greater than 100 µM and the TGI (HS 578T breast) is reported as 65.8 µM. The TGI (TK-10 renal) was greater than 100 µM, the TGI (OVCAR-4 ovarian) was greater than 100 µM and the TGI (LOX IMVI melanoma) was 25.5 µM. The TGI (MCF7 breast) was greater than 100 µM, the TGI (MALME-3M melanoma) was 28.6 µM and the TGI (EKVX NSCLC) was 96.5 µM. For the same compound, the TGI (NCI-H23 lung) was greater than 100 µM, the TGI (SF-295 CNS) was 25.6 µM and the TGI (786-0 renal) was 34 µM. The TGI (OVCAR-8 ovarian) was 38.9 µM, the TGI (OVCAR-3 ovarian) was 38 µM and the TGI (HCC-2998 colon) was 39.5 µM. For the same compound, the TGI (HL-60(TB) leukemia) was greater than 100 µM, the TGI (M14 melanoma) was greater than 100 µM and the TGI (SNB-19 CNS) was greater than 100 µM. The TGI (OVCAR-5 ovarian) was greater than 100 µM, the TGI (UO-31 renal) was 58.9 µM and the TGI (CAKI-1 renal) was greater than 100 µM. The TGI (SK-MEL-28 melanoma) was 81.9 µM, the TGI (SK-MEL-5 melanoma) was 19.3 µM and the TGI (SW-620 colon) was 94.8 µM. For the same compound, the TGI (HCT-15 colon) was greater than 100 µM, the TGI (ACHN renal) was 76.5 µM and the TGI (BT-549 breast) was 23.1 µM. For the same compound, the TGI (NCI-H522 lung) was 30.4 µM, the TGI (MDA-N) was 5.62 µM and the TGI (MDA-MB-231 breast) was 20.3 µM. The TGI (MOLT-4 leukemia) was 37 µM, the TGI (HOP-62 NSCLC) was 61.5 µM and the TGI (UACC-257 melanoma) was 50.3 µM. For the same compound, the TGI (HCT-116 colon) was 24.1 µM, the TGI (T-47D breast) was greater than 100 µM and the TGI (SN12C renal) was 20.2 µM. The TGI (SF-539 CNS) was 31.4 µM, the TGI (HT29 colon) was 27.1 µM and the TGI (A549 NSCLC) was 42.6 µM. For the same compound, the TGI (IGROV1 ovarian) was 56.8 µM, the TGI (KM12 colon) was 20 µM and the TGI (CCRF-CEM leukemia) was 59.7 µM. It also gave a TGI (SR leukemia) greater than 100 µM, a TGI (A498 renal) of 34.8 µM and a TGI (RXF 393 renal) of 27.5 µM. The TGI (RPMI-8226 leukemia) was greater than 100 µM, the TGI (DU-145 prostate) was greater than 100 µM and the TGI (NCI-H226 lung) was 42.6 µM. For the same compound, the TGI (SNB-75 CNS) was greater than 100 µM, the TGI (U251 CNS) was 62 µM and the TGI (NCI-H460 lung) was 31.5 µM. It also gave a TGI (K-562 leukemia) of 16.2 µM.
